Results from ChEMBL document CHEMBL1201862, “PubChem BioAssay data set” (2004).
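48-hour exposure; five concentrations; linearly interpolated endpoints. Here, GI50 denotes the concentration required for 50% inhibition of growth.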 Active and inactive are the calls of the source. Rule as the data show it: active = GI50 up to about 1.1 µM and inactive = higher.

Columns and labels:
Assay in all cases: NCI tumour cell line growth inhibition, 48 h
786-0 = system: 786-0
A498 = system: A498
A549 = system: A549
ACHN = system: ACHN
CAKI-1 = system: CAKI-1
CCRF-CEM = system: CCRF-CEM
COLO 205 = system: COLO 205
DLD-1 = system: DLD-1
DMS-114 = system: DMS-114
DMS-273 = system: DMS-273
DU-145 = system: DU-145
EKVX = system: EKVX
HCC 2998 = system: HCC 2998
HCT-116 = system: HCT-116
HCT-15 = system: HCT-15
HL-60 = system: HL-60
HOP-62 = system: HOP-62
HOP-92 = system: HOP-92
HT-29 = system: HT-29
Hs-578T = system: Hs-578T
IGROV-1 = system: IGROV-1
K562 = system: K562
KM12 = system: KM12
LOX IMVI = system: LOX IMVI
LXFL 529 = system: LXFL 529
M14 = system: M14
M19-MEL = system: M19-MEL
MCF7 = system: MCF7
MDA-MB-231 = system: MDA-MB-231
MDA-MB-435 = system: MDA-MB-435
MDA-N = system: MDA-N
MOLT-4 = system: MOLT-4
Malme-3M = system: Malme-3M
NCI-H226 = system: NCI-H226
NCI-H23 = system: NCI-H23
NCI-H460 = system: NCI-H460
NCI-H522 = system: NCI-H522
NCI/ADR-RES = system: NCI/ADR-RES
OVCAR-3 = system: OVCAR-3
OVCAR-4 = system: OVCAR-4
OVCAR-5 = system: OVCAR-5
OVCAR-8 = system: OVCAR-8
PC-3 = system: PC-3
RPMI-8226 = system: RPMI-8226
RXF 393 = system: RXF 393
RXF 631 = system: RXF 631
SF-268 = system: SF-268
SF-295 = system: SF-295
SF-539 = system: SF-539
SK-MEL-28 = system: SK-MEL-28
SK-MEL-2 = system: SK-MEL-2
SK-MEL-5 = system: SK-MEL-5
SK-OV-3 = system: SK-OV-3
SN12C = system: SN12C
SNB-19 = system: SNB-19
SNB-75 = system: SNB-75
SNB-78 = system: SNB-78
SR = system: SR
SW-620 = system: SW-620
TK-10 = system: TK-10
U-251 = system: U-251
UACC-257 = system: UACC-257
UACC-62 = system: UACC-62
UO-31 = system: UO-31
XF498 = system: XF498
HOP-18 = system: HOP-18
KM-20L2 = system: KM-20L2

SMILES: c1cc2c(ncc3cscc32)s1
- GI50 (786-0): > 100 µM (inactive)
- GI50 (A498): 51.1 µM (inactive)
- GI50 (A549): > 100 µM (inactive)
- GI50 (ACHN): > 100 µM (inactive)
- GI50 (CAKI-1): > 72.4 µM (inactive)
- GI50 (CCRF-CEM): > 100 µM (inactive)
- GI50 (COLO 205): > 100 µM (inactive)
- GI50 (DLD-1): > 100 µM (inactive)
- GI50 (DMS-114): > 100 µM (inactive)
- GI50 (DMS-273): > 100 µM (inactive)
- GI50 (DU-145): > 100 µM (inactive)
- GI50 (EKVX): > 100 µM (inactive)
- GI50 (HCC 2998): > 100 µM (inactive)
- GI50 (HCT-116): > 31.6 µM (inactive)
- GI50 (HCT-15): > 100 µM
- GI50 (HL-60): > 100 µM (inactive)
- GI50 (HOP-62): > 100 µM (inactive)
- GI50 (HOP-92): > 100 µM (inactive)
- GI50 (HT-29): > 100 µM (inactive)
- GI50 (Hs-578T): > 100 µM (inactive)
- GI50 (IGROV-1): > 31.6 µM (inactive)
- GI50 (K562): > 100 µM (inactive)
- GI50 (KM12): > 100 µM (inactive)
- GI50 (LOX IMVI): > 49.5 µM (inactive)
- GI50 (LXFL 529): > 100 µM (inactive)
- GI50 (M14): > 100 µM (inactive)
- GI50 (M19-MEL): > 100 µM (inactive)
- GI50 (MCF7): > 100 µM (inactive)
- GI50 (MDA-MB-231): > 100 µM (inactive)
- GI50 (MDA-MB-435): > 100 µM (inactive)
- GI50 (MDA-N): > 100 µM (inactive)
- GI50 (MOLT-4): > 100 µM (inactive)
- GI50 (Malme-3M): > 100 µM (inactive)
- GI50 (NCI-H226): > 61.7 µM (inactive)
- GI50 (NCI-H23): > 68.4 µM (inactive)
- GI50 (NCI-H460): > 100 µM (inactive)
- GI50 (NCI-H522): > 100 µM (inactive)
- GI50 (NCI/ADR-RES): > 100 µM (inactive)
- GI50 (OVCAR-3): > 100 µM (inactive)
- GI50 (OVCAR-4): > 100 µM (inactive)
- GI50 (OVCAR-5): > 89.5 µM (inactive)
- GI50 (OVCAR-8): > 100 µM (inactive)
- GI50 (PC-3): > 100 µM (inactive)
- GI50 (RPMI-8226): > 100 µM (inactive)
- GI50 (RXF 393): > 79.3 µM (inactive)
- GI50 (RXF 631): > 100 µM (inactive)
- GI50 (SF-268): > 100 µM (inactive)
- GI50 (SF-295): > 100 µM (inactive)
- GI50 (SF-539): > 100 µM (inactive)
- GI50 (SK-MEL-28): > 100 µM (inactive)
- GI50 (SK-MEL-2): > 100 µM (inactive)
- GI50 (SK-MEL-5): > 100 µM (inactive)
- GI50 (SK-OV-3): > 10 µM (inactive)
- GI50 (SN12C): > 100 µM (inactive)
- GI50 (SNB-19): > 100 µM (inactive)
- GI50 (SNB-75): > 52.6 µM (inactive)
- GI50 (SNB-78): > 100 µM (inactive)
- GI50 (SR): > 100 µM (inactive)
- GI50 (SW-620): > 100 µM (inactive)
- GI50 (TK-10): > 100 µM (inactive)
- GI50 (U-251): > 87.3 µM (inactive)
- GI50 (UACC-257): > 100 µM (inactive)
- GI50 (UACC-62): > 31.6 µM (inactive)
- GI50 (UO-31): > 70.6 µM (inactive)
- GI50 (XF498): > 100 µM (inactive)

SMILES: CCN(N=O)C1C2(CCCC2)NC(=O)C12CCCC2 (stereo unspecified)
- GI50 (786-0): > 100 µM (inactive)
- GI50 (A498): > 100 µM (inactive)
- GI50 (A549): > 100 µM (inactive)
- GI50 (ACHN): > 100 µM (inactive)
- GI50 (CCRF-CEM): > 100 µM (inactive)
- GI50 (DLD-1): > 100 µM (inactive)
- GI50 (DMS-114): > 100 µM (inactive)
- GI50 (EKVX): > 100 µM (inactive)
- GI50 (HCC 2998): > 100 µM (inactive)
- GI50 (HCT-116): > 100 µM (inactive)
- GI50 (HCT-15): > 100 µM
- GI50 (HL-60): > 100 µM (inactive)
- GI50 (HOP-18): > 100 µM (inactive)
- GI50 (HOP-62): > 100 µM (inactive)
- GI50 (HT-29): > 100 µM (inactive)
- GI50 (IGROV-1): > 100 µM (inactive)
- GI50 (K562): > 100 µM (inactive)
- GI50 (KM-20L2): > 100 µM (inactive)
- GI50 (KM12): > 100 µM (inactive)
- GI50 (LOX IMVI): > 100 µM (inactive)
- GI50 (LXFL 529): > 100 µM (inactive)
- GI50 (M14): > 100 µM (inactive)
- GI50 (M19-MEL): > 100 µM (inactive)
- GI50 (MOLT-4): > 100 µM (inactive)
- GI50 (Malme-3M): > 100 µM (inactive)
- GI50 (NCI-H226): > 100 µM (inactive)
- GI50 (NCI-H23): > 100 µM (inactive)
- GI50 (NCI-H460): > 100 µM (inactive)
- GI50 (OVCAR-3): > 100 µM (inactive)
- GI50 (OVCAR-4): > 100 µM (inactive)
- GI50 (OVCAR-5): > 100 µM (inactive)
- GI50 (OVCAR-8): > 100 µM (inactive)
- GI50 (RPMI-8226): > 100 µM (inactive)
- GI50 (RXF 393): > 100 µM (inactive)
- GI50 (RXF 631): > 100 µM (inactive)
- GI50 (SF-268): > 100 µM (inactive)
- GI50 (SF-295): > 100 µM (inactive)
- GI50 (SF-539): > 100 µM (inactive)
- GI50 (SK-MEL-28): > 100 µM (inactive)
- GI50 (SK-OV-3): > 100 µM (inactive)
- GI50 (SN12C): > 100 µM (inactive)
- GI50 (SNB-19): > 100 µM (inactive)
- GI50 (SNB-75): > 100 µM (inactive)
- GI50 (SNB-78): > 100 µM (inactive)
- GI50 (SR): > 100 µM (inactive)
- GI50 (SW-620): > 100 µM (inactive)
- GI50 (TK-10): > 100 µM (inactive)
- GI50 (U-251): > 100 µM (inactive)
- GI50 (UACC-257): > 100 µM (inactive)
- GI50 (UACC-62): > 100 µM (inactive)
- GI50 (UO-31): > 100 µM (inactive)
- GI50 (XF498): > 100 µM (inactive)

SMILES: CCN1CCC(O)(/C=C/c2ccccc2)C(C(=O)/C=C/c2ccccc2)C1 (stereo unspecified)
- GI50 (786-0): 1.75 µM (inactive)
- GI50 (A498): 6.21 µM (inactive)
- GI50 (A549): 4.86 µM (inactive)
- GI50 (ACHN): 1.72 µM (inactive)
- GI50 (CAKI-1): 2.71 µM (inactive)
- GI50 (COLO 205): 1.77 µM (inactive)
- GI50 (DLD-1): 2.08 µM (inactive)
- GI50 (DMS-114): 2.08 µM (inactive)
- GI50 (DMS-273): 1.68 µM (inactive)
- GI50 (EKVX): 3.33 µM (inactive)
- GI50 (HCC 2998): 1.96 µM (inactive)
- GI50 (HCT-116): 1.63 µM (inactive)
- GI50 (HCT-15): 1.87 µM
- GI50 (HL-60): 1.64 µM (inactive)
- GI50 (HOP-18): 5.64 µM (inactive)
- GI50 (HOP-62): 13.9 µM (inactive)
- GI50 (HOP-92): 2.64 µM (inactive)
- GI50 (HT-29): 1.76 µM (inactive)
- GI50 (IGROV-1): 1.85 µM (inactive)
- GI50 (KM-20L2): 2.62 µM (inactive)
- GI50 (KM12): 1.8 µM (inactive)
- GI50 (LXFL 529): 1.87 µM (inactive)
- GI50 (M14): 2.09 µM (inactive)
- GI50 (M19-MEL): 1.99 µM (inactive)
- GI50 (MOLT-4): 2.21 µM (inactive)
- GI50 (Malme-3M): 2.26 µM (inactive)
- GI50 (NCI-H226): 3.02 µM (inactive)
- GI50 (NCI-H23): 2.93 µM (inactive)
- GI50 (NCI-H460): 1.95 µM (inactive)
- GI50 (NCI-H522): 1.73 µM (inactive)
- GI50 (OVCAR-3): 3.1 µM (inactive)
- GI50 (OVCAR-4): 3.27 µM (inactive)
- GI50 (OVCAR-5): 3.06 µM (inactive)
- GI50 (OVCAR-8): 1.89 µM (inactive)
- GI50 (RXF 393): 1.67 µM (inactive)
- GI50 (RXF 631): 4.1 µM (inactive)
- GI50 (SF-268): 2.54 µM (inactive)
- GI50 (SF-295): 2.96 µM (inactive)
- GI50 (SF-539): 1.91 µM (inactive)
- GI50 (SK-MEL-28): 1.89 µM (inactive)
- GI50 (SK-MEL-2): 2.65 µM (inactive)
- GI50 (SK-MEL-5): 3.22 µM (inactive)
- GI50 (SK-OV-3): 7.85 µM (inactive)
- GI50 (SN12C): 1.79 µM (inactive)
- GI50 (SNB-19): 9.98 µM (inactive)
- GI50 (SNB-75): 6.4 µM (inactive)
- GI50 (SNB-78): 3.33 µM (inactive)
- GI50 (SW-620): 1.69 µM (inactive)
- GI50 (TK-10): 2.61 µM (inactive)
- GI50 (U-251): 2.15 µM (inactive)
- GI50 (UACC-257): 1.98 µM (inactive)
- GI50 (UACC-62): 1.71 µM (inactive)
- GI50 (UO-31): 10.1 µM (inactive)
- GI50 (XF498): 5.65 µM (inactive)
